Reference: US9624228B2, “Inhibitors of ERK and methods of use” (KURA ONCOLOGY, INC., priority 2013, dated 2017)

Target: ERK2 enzyme (Homo sapiens (Human), UniProt P28482)
Assay: Inhibition assay of ERK (Z'-LYTE kinase assay, Ser/Thr 3 peptide substrate)
Assay type: biochemical
Details: 100 μM ATP
Procedure: The inhibition of ERK activity by the compounds disclosed herein was determined using the Z′-LYTE kinase assay kit (Life Technologies) with a Ser/Thr 3 peptide substrate (Life Technologies) according to manufacturers' instructions. […] The IC50 values for the compounds were determined with 3-fold serial dilutions in duplicate. […] The final DMSO concentration in the assay was 1%. Final reaction volume was 20 μL/well in 384-well plates. Kinase reactions were conducted or 1 hour followed by the assay development reaction (1 hour) in a 20 ul/well in a 384 well plate format.

[1] = In vitro, ERK2 enzyme 0.47 ng/μL

Chain of ERK2 enzyme (P28482 whole entry): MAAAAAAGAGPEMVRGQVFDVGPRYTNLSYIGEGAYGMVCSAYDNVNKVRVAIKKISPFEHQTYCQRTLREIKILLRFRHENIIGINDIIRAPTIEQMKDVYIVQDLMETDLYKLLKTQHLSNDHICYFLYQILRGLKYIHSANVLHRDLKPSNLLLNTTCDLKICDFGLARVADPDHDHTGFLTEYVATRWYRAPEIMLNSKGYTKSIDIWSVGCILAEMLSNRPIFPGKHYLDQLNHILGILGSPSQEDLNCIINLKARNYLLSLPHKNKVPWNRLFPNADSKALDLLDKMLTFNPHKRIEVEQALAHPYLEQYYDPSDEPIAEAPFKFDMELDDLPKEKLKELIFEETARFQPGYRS

Structure (SMILES)	IC50 [1] [nM]	IC50 (In vitro ERK2 enzyme) [nM]
Cc1cc(-c2n[nH]c3cc4c(cc23)CN([C@@H]2CN(CC(F)(F)F)C[C@H]2c2ccc(F)cc2)C(=O)N4)ccn1 (racemic) [Compound 300]	< 50	
Cc1cc(-c2n[nH]c3cc4c(cc23)CN([C@@H]2CN(CC(F)F)C[C@H]2c2ccccc2)C(=O)N4)cc(C)n1 (mixture of isomers) [Compound 379]	< 50	
COc1ccc(-c2n[nH]c3cc4c(cc23)CN([C@H]2CCCN(Cc3ccccc3)C2)C(=O)N4)cn1 [Compound 368]	50 to 250	
CC(c1ccccc1)c1cc2cc3c(-c4ccncc4)n[nH]c3cc2[nH]c1=O (centres unmarked) [Compound 326]	< 50	
Cc1cc(-c2n[nH]c3cc4c(cc23)CN(CC2CCC2)C(=O)N4)ccn1 [Compound 253]	< 50	
Cn1cc(-c2n[nH]c3cc4c(cc23)CN([C@@H]2CCCN(Cc3ccccc3)C2)C(=O)N4)cn1 [Compound 285]	< 50	
Cc1cc(-c2n[nH]c3cc4c(cc23)CN([C@@H]2CCCN(Cc3csc(C)c3)C2)C(=O)N4)ccn1 [Compound 251]	< 50	
Cc1cc(-c2n[nH]c3cc4c(cc23)CN([C@@H]2CCC[C@@H](NCc3ccccc3)C2)C(=O)N4)ccn1 [Compound 313]	< 50	
Cc1cc(-c2n[nH]c3cc4c(cc23)CN([C@@H]2CCCN(Cc3ccc(F)cc3F)C2)C(=O)N4)ccn1 [Compound 196]		< 50
Cc1ccc(-c2n[nH]c3cc4c(cc23)CN([C@@H]2CCCN(Cc3ccccc3)C2)C(=O)N4)cn1 [Compound 275]	< 50	
Cc1cc(-c2n[nH]c3cc4c(cc23)CN([C@@H]2CCCN(Cc3ccc(F)cc3)C2)C(=O)N4)ccn1 [Compound 151]		< 50
Cc1cc(-c2n[nH]c3cc4c(cc23)CN(CCC2CC2)C(=O)N4)ccn1 [Compound 283]	50 to 250	
CCC(c1ccccc1)c1cc2cc3c(-c4ccnc(C)c4)n[nH]c3cc2[nH]c1=O (centres unmarked) [Compound 64]		< 50
Cc1cc(-c2n[nH]c3cc4c(cc23)CN(C2CCCC2)C(=O)N4)ccn1 [Compound 205]	< 50	
Cc1cc(-c2n[nH]c3cc4c(cc23)CN([C@@H]2CCN(CCc3ccccc3)C2)C(=O)N4)ccn1 [Compound 153]		< 50
Cc1cc(-c2n[nH]c3cc4c(cc23)CN([C@@H]2CCCN(CC(=O)C(C)C)C2)C(=O)N4)ccn1 [Compound 209]	< 50	
Cc1cc(-c2n[nH]c3cc4c(cc23)CN([C@@H]2CN(CC(F)(F)F)C[C@H]2C(F)(F)F)C(=O)N4)ccn1 [Compound 331]	< 50	
Cc1cc(-c2n[nH]c3cc4c(cc23)CN([C@H]2CCCN(Cc3ccccc3)C2)C(=O)N4)cc(C)n1 [Compound 363]	< 50	
Cc1cc(-c2n[nH]c3cc4c(cc23)CN(CC2CCCN(Cc3ccccc3)C2)C(=O)N4)ccn1 (centres unmarked) [Compound 208]	50 to 250	
Cc1cc(-c2n[nH]c3cc4[nH]c(=O)c(C5CCCC5)cc4cc23)ccn1 [Compound 289]	< 50	
Cc1ccc(-c2n[nH]c3cc4[nH]c(=O)c(C5CCCN(Cc6ccccc6)C5)cc4cc23)cn1 (centres unmarked) [Compound 373]	50 to 250	
Cc1cc(-c2n[nH]c3cc4c(cc23)CN([C@@H]2CCCN(Cc3cccc(F)c3F)C2)C(=O)N4)ccn1 [Compound 185]		< 50
Cc1cc(-c2n[nH]c3cc4c(cc23)CN([C@@H]2CCCN(Cc3cc(F)cc(F)c3)C2)C(=O)N4)ccn1 [Compound 163]		< 50

Structure (SMILES)	IC50 [1] [nM]	IC50 (In vitro ERK2 enzyme) [nM]
Cn1cc(-c2n[nH]c3cc4c(cc23)CN([C@@H]2CCCN(Cc3cccs3)C2)C(=O)N4)cn1 [Compound 298]	< 50	
Cc1cc(-c2n[nH]c3cc4c(cc23)CN([C@@H]2CN(CCO)C[C@H]2c2ccccc2)C(=O)N4)ccn1 (mixture of isomers) [Compound 376]	< 50	
Cc1cc(-c2n[nH]c3cc4c(cc23)CN([C@@H]2CN(C)C[C@H]2c2ccccc2)C(=O)N4)cc(C)n1 [Compound 308]	< 50	
Cc1cc(-c2n[nH]c3cc4c(cc23)CN([C@@H]2CCCN(Cc3cccnc3C)C2)C(=O)N4)ccn1 [Compound 170]		< 50
Cc1cc(-c2n[nH]c3cc4c(cc23)CN([C@@H]2CCCN(CC(=O)C(C)(C)C)C2)C(=O)N4)ccn1 [Compound 203]	< 50	
Cc1cc(-c2n[nH]c3cc4c(cc23)CN([C@@H]2CCCN(CCC(C)C)C2)C(=O)N4)ccn1 [Compound 169]		< 50
Cc1cc(-c2n[nH]c3cc4c(cc23)CN([C@@H]2CN(CC(F)(F)F)C[C@H]2c2ccccc2)C(=O)N4)ccn1 [Compound 222]	50 to 250	
Cc1cc(-c2n[nH]c3cc4c(cc23)CN([C@@H]2CCCN(Cc3ccc(F)cn3)C2)C(=O)N4)ccn1 [Compound 132]		< 50
COc1cccc(F)c1CN1CCC(N2Cc3cc4c(-c5ccnnc5)n[nH]c4cc3NC2=O)CC1 [Compound 116]		50 to 250
Cc1cc(-c2n[nH]c3cc4c(cc23)CN(CCNCc2ccc(F)cc2)C(=O)N4)ccn1 [Compound 175]		< 50
Cn1cc(-c2n[nH]c3cc4c(cc23)CN([C@@H]2CN(CC(F)(F)F)C[C@H]2c2ccccc2)C(=O)N4)ccc1=O [Compound 346]	< 50	
Cc1cc(-c2n[nH]c3cc4c(cc23)CN(CC2CCCCC2)C(=O)N4)ccn1 [Compound 213]	< 50	
Cc1cc(-c2n[nH]c3cc4c(cc23)CN(C2CN(CC3CCCC3)CC(F)(F)C2)C(=O)N4)ccn1 (centres unmarked) [Compound 201]	250 to 1000	
CC(c1ccccc1)c1cc2cc3c(-c4ccnc(N5CCN(C)CC5)c4)n[nH]c3cc2[nH]c1=O (centres unmarked) [Compound 318]	< 50	
Cc1cc(-c2n[nH]c3cc4c(cc23)CN(C2CN(Cc3cc(F)cc(F)c3)CC(F)(F)C2)C(=O)N4)ccn1 (centres unmarked) [Compound 202]	250 to 1000	
Cc1cc(-c2n[nH]c3cc4c(cc23)CN([C@@H]2CCCN(Cc3ccccn3)C2)C(=O)N4)ccn1 [Compound 171]		50 to 250
Cc1cc(-c2n[nH]c3cc4c(cc23)CN(C2CCC2)C(=O)N4)ccn1 [Compound 243]	< 50	
Cc1cc(-c2n[nH]c3cc4c(cc23)CN([C@@H]2CCCN(Cc3ccc(F)c(F)c3)C2)C(=O)N4)ccn1 [Compound 190]		< 50
Cc1cc(-c2n[nH]c3cc4c(cc23)CN([C@@H]2CCCN(Cc3cc(C)no3)C2)C(=O)N4)ccn1 [Compound 139]		< 50
Cc1cc(-c2n[nH]c3cc4c(cc23)CN([C@@H]2CCCN(Cc3cccc(Cl)c3)C2)C(=O)N4)ccn1 [Compound 156]		< 50
Cc1cc(-c2n[nH]c3cc4[nH]c(=O)n(Cc5ccccc5)c(=O)c4cc23)ccn1 [Compound 27]		< 50
Cc1cc(-c2n[nH]c3cc4c(cc23)CN([C@@H]2CCCN(CCC(C)(C)C)C2)C(=O)N4)ccn1 [Compound 136]		50 to 250

More lines, now with the values ahead:

IC50 [1] [nM]	IC50 (In vitro ERK2 enzyme) [nM]	Structure (SMILES)
	< 50	Cc1cc(-c2n[nH]c3cc4c(cc23)CN([C@@H]2CCCN(C(C)c3ccccc3)C2)C(=O)N4)ccn1 (some centres unmarked) [Compound 154]
< 50		Cc1cc(-c2n[nH]c3cc4c(cc23)CN(Cc2nc(C)cs2)C(=O)N4)ccn1 [Compound 246]
< 50		CC(c1ccccc1)c1cc2cc3c(-c4cnc(N)nc4)n[nH]c3cc2[nH]c1=O (centres unmarked) [Compound 334]
	< 50	C[C@H](c1ccc(Cl)cc1)N1Cc2cc3c(-c4ccnnc4)n[nH]c3cc2NC1=O [Compound 115]
	< 50	COc1ccc(-c2n[nH]c3cc4c(cc23)CN(CCc2ccc(F)cc2)C(=O)N4)cn1 [Compound 79]
	50 to 250	N#Cc1ccc(-c2n[nH]c3cc4c(cc23)CN(Cc2cccc(Cl)c2)C(=O)N4)cc1 [Compound 94]
	< 50	Cc1cc(-c2n[nH]c3cc4c(cc23)CN(Cc2nccs2)C(=O)N4)ccn1 [Compound 56]
	< 50	COc1ncc(-c2n[nH]c3cc4c(cc23)CN(Cc2cc(F)cc(F)c2)C(=O)N4)cn1 [Compound 88]
< 50		Cc1cc(-c2n[nH]c3cc4c(cc23)CN(C(C)C2CCOCC2)C(=O)N4)ccn1 (centres unmarked) [Compound 262]
	< 50	COc1ccc(-c2n[nH]c3cc4c(cc23)CN(Cc2cccc(Cl)c2)C(=O)N4)cn1 [Compound 75]
	50 to 250	CCC(=O)NCCN1Cc2cc3c(-c4cnc(OC)nc4)n[nH]c3cc2NC1=O [Compound 106]
50 to 250		Cc1cc(-c2n[nH]c3cc4c(cc23)CN([C@@H]2CCCN(c3cccc(C)n3)C2)C(=O)N4)ccn1 [Compound 238]
	< 50	O=C1Nc2cc3[nH]nc(-c4cn[nH]c4)c3cc2CN1Cc1cccc(Cl)c1 [Compound 60]
	< 50	COc1ncc(-c2n[nH]c3cc4c(cc23)CN([C@H](C)c2cccc(C#N)c2)C(=O)N4)cn1 [Compound 100]
< 50		Cc1cc(-c2n[nH]c3cc4c(cc23)CN(C(C)c2nc(C)c(C)s2)C(=O)N4)ccn1 (centres unmarked) [Compound 286]
	< 50	Cc1cc(-c2n[nH]c3cc4c(cc23)CN(CCNCc2cccc(Cl)c2)C(=O)N4)ccn1 [Compound 176]
	< 50	Cc1cc(-c2n[nH]c3cc4c(cc23)CN([C@H](C)c2ccccc2)C(=O)N4)ccn1 [Compound 2, (R)-3-(2-methylpyridin-4-yl)-6-(1-phenylethyl)-5,6-dihydro-1H-pyrazolo[4,3-g]quinazolin-7(8H)-one]
	50 to 250	Cc1cc(-c2n[nH]c3cc4c(cc23)CN([C@H](C)c2ccc(F)cc2)C(=O)N4)ccn1 [Compound 5]
	< 50	Cc1cc(-c2n[nH]c3cc4c(cc23)CN(Cc2cscn2)C(=O)N4)ccn1 [Compound 47]
	< 50	Cc1cc(-c2n[nH]c3cc4c(cc23)CN([C@H](C)c2cccc(Cl)c2)C(=O)N4)ccn1 [Compound 35]
	< 50	COc1ncc(-c2n[nH]c3cc4c(cc23)CN(Cc2ccc(F)cc2F)C(=O)N4)cn1 [Compound 99]
< 50		Cc1cc(-c2n[nH]c3cc4c(cc23)CN(Cc2cccs2)C(=O)N4)cc(C)n1 [Compound 227]
	< 50	COc1ncc(-c2n[nH]c3cc4c(cc23)CN(Cc2ccc(F)cc2)C(=O)N4)cn1 [Compound 72]
